In ChEMBL document CHEMBL6109078, “Pyrylium derivatives as outer membrane permeabilizers against MDR gram-negative bacteria via multi-target mode of action” (Eur J Med Chem, 2025):
Calls of active or inactive are those of the source. The rule behind the calls is not given here.

Legend:
[1] = tested on: Acinetobacter baumannii; test: Synergistic antibacterial activity against multi-drug resistant Acinetobacter baumannii clinical isolate 14 assessed as inhibition of bacterial growth in presence of polymyxin B by checkerboard assay; format: functional
[2] = tested on: Acinetobacter baumannii; test: Synergistic antibacterial activity against multi-drug resistant Acinetobacter baumannii clinical isolate 43 assessed as inhibition of bacterial growth by measuring polymyxin B MIC by checkerboard assay; format: functional
[3] = tested on: Acinetobacter baumannii; test: Synergistic antibacterial activity against multi-drug resistant Acinetobacter baumannii clinical isolate 1 assessed as fractional inhibitory concentration index in presence of gentamycin by checkerboard assay; format: functional
[4] = tested on: Acinetobacter baumannii; test: Synergistic antibacterial activity against multi-drug resistant Acinetobacter baumannii clinical isolate 14 assessed as fractional inhibitory concentration index in presence of amikacin by checkerboard assay; format: functional
[5] = tested on: Acinetobacter baumannii; test: Synergistic antibacterial activity against Acinetobacter baumannii ATCC 19606 assessed as fractional inhibitory concentration index in presence of gentamycin by checkerboard assay; format: functional
[6] = tested on: Escherichia coli; test: Antibacterial activity against Escherichia coli CG-4 expressing MCR-1 and NDM-1 assessed as inhibition of bacterial growth by CLSI protocol based method; format: functional
[7] = tested on: Acinetobacter baumannii; test: Antibacterial activity against Acinetobacter baumannii ATCC 19606 assessed as inhibition of bacterial growth by measuring decrease in bacterial count at 6.25 to 50 microg/ml measured after 12 hrs by time-kill kinetics analysis; format: functional; settings: dose 6.25-50 µg/ml
[8] = tested on: Escherichia coli; test: Synergistic antibacterial activity against Escherichia coli ATCC 25922 assessed as inhibition of bacterial growth in presence of polymyxin B by checkerboard assay; format: functional
[9] = tested on: Acinetobacter baumannii; test: Synergistic antibacterial activity against multi-drug resistant Acinetobacter baumannii clinical isolate 1 assessed as inhibition of bacterial growth in presence of polymyxin B by checkerboard assay; format: functional
[10] = tested on: Acinetobacter baumannii; test: Synergistic antibacterial activity against multi-drug resistant Acinetobacter baumannii clinical isolate 43 assessed as fractional inhibitory concentration index in presence of amikacin by checkerboard assay; format: functional
[11] = tested on: Acinetobacter baumannii; test: Synergistic antibacterial activity against multi-drug resistant Acinetobacter baumannii clinical isolate 1 assessed as fractional inhibitory concentration index in presence of amikacin by checkerboard assay; format: functional
[12] = tested on: Escherichia coli; test: Synergistic antibacterial activity against multi-drug resistant Escherichia coli clinical isolate 1 assessed as fractional inhibitory concentration index in presence of gentamycin by checkerboard assay; format: functional
[13] = tested on: Acinetobacter baumannii; test: Antibacterial activity against Acinetobacter baumannii ATCC 19606 assessed as inhibition of bacterial growth by CLSI protocol based method; format: functional
[14] = tested on: Acinetobacter baumannii; test: Synergistic antibacterial activity against multi-drug resistant Acinetobacter baumannii clinical isolate 5 assessed as fractional inhibitory concentration index in presence of amikacin by checkerboard assay; format: functional
[15] = tested on: Acinetobacter baumannii; test: Synergistic antibacterial activity against multi-drug resistant Acinetobacter baumannii clinical isolate 5 assessed as fractional inhibitory concentration index in presence of gentamycin by checkerboard assay; format: functional
[16] = tested on: Acinetobacter baumannii; test: Synergistic antibacterial activity against multi-drug resistant Acinetobacter baumannii clinical isolate 14 assessed as inhibition of bacterial growth by measuring polymyxin B MIC by checkerboard assay; format: functional
[17] = tested on: Escherichia coli; test: Synergistic antibacterial activity against Escherichia coli ATCC 35218 assessed as inhibition of bacterial growth by measuring polymyxin B MIC by checkerboard assay; format: functional
[18] = tested on: Klebsiella pneumoniae; test: Synergistic antibacterial activity against Klebsiella pneumoniae assessed as inhibition of bacterial growth in presence of polymyxin B by checkerboard assay; format: functional, organism-based
[19] = tested on: Acinetobacter baumannii; test: Antibacterial activity against multi-drug resistant Acinetobacter baumannii clinical isolate 51 assessed as inhibition of bacterial growth by CLSI protocol based method; format: functional
[20] = tested on: Escherichia coli; test: Antibacterial activity against Escherichia coli ATCC 25922 assessed as inhibition of bacterial growth by CLSI protocol based method; format: functional
[21] = tested on: Escherichia coli; test: Synergistic antibacterial activity against Escherichia coli ATCC 25922 assessed as fractional inhibitory concentration index in presence of polymyxin B by checkerboard assay; format: functional
[22] = tested on: Acinetobacter baumannii; test: Synergistic antibacterial activity against multi-drug resistant Acinetobacter baumannii clinical isolate 5 assessed as inhibition of bacterial growth by measuring polymyxin B MIC by checkerboard assay; format: functional
[23] = tested on: Acinetobacter baumannii; test: Synergistic antibacterial activity against multi-drug resistant Acinetobacter baumannii clinical isolate 1 assessed as inhibition of bacterial growth by measuring polymyxin B MIC by checkerboard assay; format: functional
[24] = tested on: Escherichia coli; test: Antibacterial activity against multi-drug resistant Escherichia coli clinical isolate 1 assessed as inhibition of bacterial growth by CLSI protocol based method; format: functional
[25] = tested on: Escherichia coli; test: Synergistic antibacterial activity against multi-drug resistant Escherichia coli clinical isolate 1 assessed as inhibition of bacterial growth in presence of polymyxin B by checkerboard assay; format: functional
[26] = tested on: Bacteria; test: Binding affinity to His-tagged LptA (unknown origin) extracted from Escherichia coli BL21 (DE3) cells by BLI analysis
[27] = tested on: Escherichia coli; test: Synergistic antibacterial activity against Escherichia coli ATCC 35218 assessed as fractional inhibitory concentration index in presence of gentamycin by checkerboard assay; format: functional
[28] = tested on: Escherichia coli; test: Synergistic antibacterial activity against Escherichia coli CG-4 expressing MCR-1 and NDM-1 assessed as fractional inhibitory concentration index in presence of […] by checkerboard assay; format: functional
[29] = tested on: Escherichia coli; test: Synergistic antibacterial activity against Escherichia coli ATCC 25922 assessed as fractional inhibitory concentration index in presence of gentamycin by checkerboard assay; format: functional
[30] = tested on: Pseudomonas aeruginosa; test: Synergistic antibacterial activity against Pseudomonas aeruginosa assessed as inhibition of bacterial growth in presence of aminoglycoside by checkerboard assay; format: functional, organism-based
[31] = tested on: Acinetobacter baumannii; test: Synergistic antibacterial activity against multi-drug resistant Acinetobacter baumannii clinical isolate 14 assessed as fractional inhibitory concentration index in presence of gentamycin by checkerboard assay; format: functional
[32] = tested on: Escherichia coli; test: Synergistic antibacterial activity against Escherichia coli CG-4 expressing MCR-1 and NDM-1 assessed as inhibition of bacterial growth in presence of polymyxin B by checkerboard assay; format: functional
[33] = tested on: Acinetobacter baumannii; test: Synergistic antibacterial activity against Acinetobacter baumannii ATCC 19606 assessed as fractional inhibitory concentration index in presence of polymyxin B by checkerboard assay; format: functional
[34] = tested on: Acinetobacter baumannii; test: Antibacterial activity against multi-drug resistant Acinetobacter baumannii clinical isolate 1 assessed as inhibition of bacterial growth by CLSI protocol based method; format: functional
[35] = tested on: Acinetobacter baumannii; test: Antibacterial activity against multi-drug resistant Acinetobacter baumannii clinical isolate 14 assessed as inhibition of bacterial growth by CLSI protocol based method; format: functional
[36] = tested on: Escherichia coli; test: Synergistic antibacterial activity against Escherichia coli ATCC 35218 assessed as fractional inhibitory concentration index in presence of polymyxin B by checkerboard assay; format: functional
[37] = tested on: Klebsiella pneumoniae; test: Antibacterial activity against Klebsiella pneumoniae ATCC 700603 assessed as inhibition of bacterial growth by CLSI protocol based method; format: functional
[38] = tested on: Acinetobacter baumannii; test: Synergistic antibacterial activity against multi-drug resistant Acinetobacter baumannii clinical isolate 43 assessed as inhibition of bacterial growth in presence of polymyxin B by checkerboard assay; format: functional
[39] = tested on: Acinetobacter baumannii; test: Antibacterial activity against multi-drug resistant Acinetobacter baumannii clinical isolate 2 assessed as inhibition of bacterial growth by CLSI protocol based method; format: functional
[40] = tested on: Escherichia coli; test: Synergistic antibacterial activity against Escherichia coli ATCC 25922 assessed as inhibition of bacterial growth by measuring polymyxin B MIC by checkerboard assay; format: functional
[41] = tested on: Pseudomonas aeruginosa; test: Antibacterial activity Pseudomonas aeruginosa PAO1 assessed as inhibition of bacterial growth by CLSI protocol based method; format: functional
[42] = tested on: Escherichia coli; test: Synergistic antibacterial activity against Escherichia coli ATCC 25922 assessed as fractional inhibitory concentration index in presence of amikacin by checkerboard assay; format: functional

SMILES: CC(C)(C)c1cc(/C=C/c2ccc(N3CCCC3)cc2)cc(C(C)(C)C)[o+]1.O=S(=O)([O-])C(F)(F)F
- MIC [1]: 1.56 µg/mL
- MIC [2]: 1 10^-4 ug/ml
- fractional inhibitory concentration index (FICI) [3]: 0.125
- fractional inhibitory concentration index (FICI) [4]: 0.125
- fractional inhibitory concentration index (FICI) [5]: 0.125
- MIC [6]: 6.25 µg/mL
- Activity [7]: <6 log10CFU/ml
- MIC [8]: 1.56 µg/mL
- MIC [9]: 3.12 µg/mL
- fractional inhibitory concentration index (FICI) [10]: 0.125
- fractional inhibitory concentration index (FICI) [11]: 0.125
- fractional inhibitory concentration index (FICI) [12]: 0.125
- MIC [13]: 12.5 µg/mL
- fractional inhibitory concentration index (FICI) [14]: 0.125
- fractional inhibitory concentration index (FICI) [15]: 0.125
- MIC [16]: 0.024 µg/mL
- MIC [17]: 63 10^-4 ug/ml
- Activity [18]: inactive
- MIC [19]: 12.5 µg/mL
- MIC [20]: 12.5 µg/mL
- fractional inhibitory concentration index (FICI) [21]: 0.156
- MIC [22]: 3 ng/mL
- MIC [23]: 1.56 µg/mL
- MIC [24]: ≥ 100 µg/mL
- MIC [25]: 6.25 µg/mL
- Activity [26]: Dose-dependent-effect
- fractional inhibitory concentration index (FICI) [27]: 0.125
- fractional inhibitory concentration index (FICI) [28]: 0.125
- fractional inhibitory concentration index (FICI) [29]: 0.125
- Activity [30]: inactive
- fractional inhibitory concentration index (FICI) [31]: 0.125
- MIC [32]: 0.78 µg/mL
- fractional inhibitory concentration index (FICI) [33]: 0.156
- MIC [34]: 12.5 µg/mL
- MIC [35]: 6.25 µg/mL
- fractional inhibitory concentration index (FICI) [36]: 0.375
- MIC [37]: > 100 µg/mL
- MIC [38]: 6.25 µg/mL
- MIC [39]: 6.25 µg/mL
- MIC [40]: 31.25 10^-4 ug/ml
- MIC [41]: > 100 µg/mL
- fractional inhibitory concentration index (FICI) [42]: 0.125

SMILES: CN1CCOc2cc(/C=C/c3cc(C(C)(C)C)[o+]c(C(C)(C)C)c3)ccc21.O=S(=O)([O-])C(F)(F)F
- MIC [1]: 12.5 µg/mL
- MIC [2]: 1 10^-4 ug/ml
- fractional inhibitory concentration index (FICI) [3]: 0.125
- fractional inhibitory concentration index (FICI) [4]: 0.125
- fractional inhibitory concentration index (FICI) [5]: 0.125
- MIC [6]: 25 µg/mL
- Activity [7]: <6 log10CFU/ml
- MIC [8]: 12.5 µg/mL
- MIC [9]: 12.5 µg/mL
- fractional inhibitory concentration index (FICI) [10]: 0.125
- fractional inhibitory concentration index (FICI) [11]: 0.125
- fractional inhibitory concentration index (FICI) [12]: 0.125
- MIC [13]: 50 µg/mL
- fractional inhibitory concentration index (FICI) [14]: 0.125
- fractional inhibitory concentration index (FICI) [15]: 0.125
- MIC [16]: 0.012 µg/mL
- MIC [17]: 63 10^-4 ug/ml
- Activity [18]: inactive
- MIC [19]: 50 µg/mL
- MIC [20]: 50 µg/mL
- fractional inhibitory concentration index (FICI) [21]: 0.266
- MIC [22]: 6 ng/mL
- MIC [23]: 0.05 µg/mL
- MIC [24]: ≥ 100 µg/mL
- MIC [25]: 12.5 µg/mL
- Activity [26]: inactive
- fractional inhibitory concentration index (FICI) [27]: 0.125
- fractional inhibitory concentration index (FICI) [28]: 0.125
- fractional inhibitory concentration index (FICI) [29]: 0.125
- Activity [30]: inactive
- fractional inhibitory concentration index (FICI) [31]: 0.125
- MIC [32]: 3.13 µg/mL
- fractional inhibitory concentration index (FICI) [33]: 0.25
- MIC [34]: 100 µg/mL
- MIC [35]: 100 µg/mL
- fractional inhibitory concentration index (FICI) [36]: 0.312
- MIC [37]: > 100 µg/mL
- MIC [38]: 25 µg/mL
- MIC [39]: 100 µg/mL
- MIC [40]: 7.8 10^-4 ug/ml
- MIC [41]: > 100 µg/mL
- fractional inhibitory concentration index (FICI) [42]: 0.125
